pIC50: −log10 of the molar value.
Assays:
IDH1 R132H = IDH1 R132H (Homo sapiens, UniProt O75874, R132H); test: IDH1 R132H enzymatic assay (NADPH depletion coupled to diaphorase/resazurin); assay type: biochemical; settings: enzymatic inhibition, IDH1 R132H
IDH1 R132C = IDH1 R132C (Homo sapiens, UniProt O75874, R132C); test: IDH1 R132C enzymatic assay (NADPH depletion coupled to diaphorase/resazurin); assay type: biochemical; settings: enzymatic inhibition, IDH1 R132C
Summary of the method: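 NADPH depletion, read via diaphorase/resazurin coupling, after adding substrate at 0.6 mM α-KG and 0.012 mM NADPH. Beforehand, 0.00032 mg/mL enzyme sat with compound 30 min at room temperature in pH 6.5 potassium phosphate buffer with MgCl2, glycerol and BSA.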

Sequence of IDH1 R132H (O75874 whole entry R132H): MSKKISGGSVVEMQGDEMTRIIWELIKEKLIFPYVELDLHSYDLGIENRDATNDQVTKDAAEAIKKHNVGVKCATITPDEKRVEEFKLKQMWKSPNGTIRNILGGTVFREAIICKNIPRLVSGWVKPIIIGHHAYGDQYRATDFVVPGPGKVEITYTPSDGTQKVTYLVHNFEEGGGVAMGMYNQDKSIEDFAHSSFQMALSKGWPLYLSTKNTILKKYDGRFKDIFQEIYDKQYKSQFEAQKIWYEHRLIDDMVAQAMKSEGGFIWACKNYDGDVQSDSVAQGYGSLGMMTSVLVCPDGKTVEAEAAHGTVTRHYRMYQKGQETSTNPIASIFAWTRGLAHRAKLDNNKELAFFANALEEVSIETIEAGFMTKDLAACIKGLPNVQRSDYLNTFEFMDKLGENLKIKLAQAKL
Sequence of IDH1 R132C (O75874 whole entry R132C): as the sequence (O75874 whole entry R132H) above, with H132C counted along it

Row | SMILES | pIC50 (IDH1 R132H) | pIC50 (IDH1 R132C)
1 | Cc1conc1-n1c2c(cc(-c3nc(-c4ccc(Cl)cc4)cs3)c1=O)C(=O)CC(C)(C)C2 [Compound 472] | 5.30 to 6.00 | 5.30 to 6.00
2 | CCCc1c(C(=O)N2CCNCC2)cc(-c2nc(-c3ccc(Cl)cc3)cs2)c(=O)n1-c1c(CC)cccc1CC [Compound 473] | > 6.52 | > 6.52
3 | CCOc1ncc(F)cc1-n1c(C=C(C)C)c(C(=O)N2CCNCC2)cc(-c2nc(-c3ccc(C(F)F)cn3)cs2)c1=O [Compound 474] | 6.00 to 6.52 | 5.30 to 6.00
4 | CCc1cccc(CC)c1-n1c2c(cc(-c3nc(-c4ccc(Cl)cc4)cs3)c1=O)C(=O)OC(C)(C)C2 [Compound 475] | 6.00 to 6.52 | 6.00 to 6.52
5 | CCOc1ccc(F)cc1-n1c(C=C(C)C)c(C(=O)N2CCNCC2)cc(-c2nc(-c3ccc(C(F)(F)F)nc3)cs2)c1=O [Compound 477] | > 6.52 | 6.00 to 6.52
6 | CCc1cccc(CC)c1-n1c(C=C(C)C)c(C(=O)N2CCNC(CO)C2)cc(-c2nc(-c3ccc(Cl)cc3)cs2)c1=O (stereo not shown) [Compound 478] | > 6.52 | > 6.52
7 | CCc1cccc(CC)c1-n1c(C=C(C)C)c(C(=O)N2CCN(c3ccccc3C(F)(F)F)CC2)cc(-c2nc(-c3ccc(Cl)cc3)cs2)c1=O [Compound 480] | 4.70 to 5.30 | 4.70 to 5.30
8 | O=C1CCCc2c1cc(-c1nc(-c3ccc(Cl)cc3)cs1)c(=O)n2-c1cccnc1 [Compound 481] | < 4.70 | < 4.70
9 | CCc1cccc(CC)c1-n1c(C=C(C)C)c(C(=O)N2CCN[C@H](C)C2)cc(-c2nc(-c3ccc(C(F)(F)F)cc3)cs2)c1=O [Compound 483] | > 6.52 | > 6.52
10 | Cc1c(CO)cccc1-n1c2c(cc(-c3nc(-c4ccc(Cl)nc4)cs3)c1=O)C(=O)CCC2 [Compound 486] | 4.70 to 5.30 | 4.70 to 5.30
11 | CCc1cccc(CC)c1-n1c(CC(C)C)c(C(=O)N2CCNCC2)cc(-c2ccn(Cc3ccc(Cl)cc3)n2)c1=O [Compound 487] | < 4.70 | < 4.70
12 | CCOc1ncc(F)cc1-n1c(C=C(C)C)c(C(=O)N2CCNCC2)cc(-c2nc(-c3ccc(Cl)cc3)cs2)c1=O [Compound 488] | > 6.52 | > 6.52
13 | CCc1cccc(CC)c1-n1c(C=C(C)C)c(C(=O)N2CCNC(C(C)C)C2)cc(-c2nc(-c3ccc(Cl)cc3)cs2)c1=O (stereo not shown) [Compound 489] | > 6.52 | > 6.52
14 | COc1ncc(Cl)cc1-n1c(C=C(C)C)c(C(=O)N2CCNCC2)cc(-c2nc(-c3ccc(Cl)cc3)cs2)c1=O [Compound 490] | > 6.52 | > 6.52
15 | CCc1ccc(Cl)cc1-n1c(C=C(C)C)c(C(=O)N2CCNCC2)cc(-c2nc(-c3ccc(C(F)(F)F)nc3)cs2)c1=O [Compound 491] | > 6.52 | > 6.52
16 | CCc1cccc(CC)c1-n1c(CC2CC2)c(C(=O)N2CCNCC2)cc(-c2nc(-c3ccc(Cl)nc3)cs2)c1=O [Compound 492] | > 6.52 | > 6.52
17 | CN1CCN(c2ccc(-n3c4c(cc(-c5nc(-c6ccc(Cl)cc6)cs5)c3=O)C(=O)CC(C)(C)C4)c(C(F)(F)F)c2)CC1 [Compound 493] | 4.70 to 5.30 | 4.70 to 5.30
18 | CC(C)=Cc1c(C(=O)N2CCNCC2)cc(-c2nc(-c3ccc(Cl)cc3)cs2)c(=O)n1-c1c(F)cccc1OC(C)C [Compound 494] | > 6.52 | > 6.52
19 | CC(C)=Cc1c(C(=O)N2CCNCC2)cc(-c2nc(-c3ccc(Cl)cc3)cs2)c(=O)n1-c1cc(C)ccc1OC(C)C [Compound 496] | > 6.52 | > 6.52
20 | CN1CCN(Cc2ccc(-n3c4c(cc(-c5nc(-c6ccc(Cl)cc6)cs5)c3=O)C(=O)CC(C)(C)C4)cc2)CC1 [Compound 498] | 5.30 to 6.00 | 4.70 to 5.30
21 | CCc1cccc(CC)c1-n1c(C=C(C)C)c(C(=O)N2CCNC(=O)C2c2ccccc2)cc(-c2nc(-c3ccc(Cl)cc3)cs2)c1=O (stereo not shown) [Compound 499] | 6.00 to 6.52 | > 6.52
22 | COc1ccc(Cl)c(-n2c(C=C(C)C)c(C(=O)N3CCNCC3)cc(-c3nc(-c4ccc(Cl)cc4)cs3)c2=O)c1 [Compound 500] | > 6.52 | > 6.52
23 | CCc1cccc(CC)c1-n1c(CC(C)C)c(C(=O)N2CCNCC2)cc(-c2nc(-c3ccc(Cl)cc3)c(C#N)s2)c1=O [Compound 501] | 6.00 to 6.52 | 6.00 to 6.52
24 | CCc1cccc(CC)c1-n1c(C2CC2)c(C(=O)N2CCNCC2)cc(-c2nc(-c3ccc(Cl)cc3)cs2)c1=O [Compound 502] | > 6.52 | > 6.52
25 | COc1ccccc1-n1c2c(cc(-c3nc(-c4ccc(Cl)cc4)cs3)c1=O)C(=O)CCC2 [Compound 503] | 5.30 to 6.00 | 5.30 to 6.00
26 | CCc1cccc(CC)c1-n1c(CC(C)C)c(C(=O)N2CCNCC2)cc(-c2csc(-c3ccc(Cl)cc3)n2)c1=O [Compound 505] | > 6.52 | > 6.52
27 | CCc1cccc(CC)c1-n1c(CC2CCCO2)c(C(=O)N2CCNCC2)cc(-c2nc(-c3ccc(Cl)cc3)cs2)c1=O (stereo not shown) [Compound 506] | > 6.52 | > 6.52

Row | SMILES | pIC50 (IDH1 R132H) | pIC50 (IDH1 R132C)
28 | CCc1ncc(F)cc1-n1c(C=C(C)C)c(C(=O)N2CCNCC2)cc(-c2nc(-c3ccc(Cl)cc3)cs2)c1=O [Compound 507] | > 6.52 | > 6.52
29 | CCc1cccc(OC(C)C)c1-n1c(C=C(C)C)c(C(=O)N2CCNCC2)cc(-c2nc(-c3ccc(Cl)cc3)cs2)c1=O [Compound 508] | > 6.52 | > 6.52
30 | COc1ccc(C#N)cc1-n1c2c(cc(-c3nc(-c4ccc(Cl)cc4)cs3)c1=O)C(=O)CC(C)(C)C2 [Compound 509] | 5.30 to 6.00 | 5.30 to 6.00
31 | CCc1cccc(CC)c1-n1c(C=C(C)C)c(C(=O)N2CCNCC2)cc(-c2ccn(-c3ccc(C(F)(F)F)cc3)n2)c1=O [Compound 511] | > 6.52 | > 6.52
32 | CCc1cccc(CC)c1-n1c(C=C(C)C)c(C(=O)N2CC3(CNC3)C2)cc(-c2nc(-c3ccc(Cl)cc3)cs2)c1=O [Compound 512] | > 6.52 | > 6.52
33 | CCOc1ncc(Cl)cc1-n1c(C=C(C)C)c(C(=O)N2CCNCC2)cc(-c2nc(-c3ccc(C(F)(F)F)nc3)cs2)c1=O [Compound 513] | > 6.52 | 6.00 to 6.52
34 | O=c1c(-c2nc(-c3ccc(Cl)cc3)cs2)cc2c(O)cccc2n1-c1cccnc1 [Compound 514] | < 4.70 | 5.30 to 6.00
35 | CCc1cccc(CC)c1-n1c(C=C(C)C)c(C(=O)N2CCNCC2)cc(-c2nc(-c3ccc(C(F)(F)F)cn3)cs2)c1=O [Compound 515] | > 6.52 | > 6.52
36 | CCc1cccc(CC)c1-n1c(CC(C)C)c(C(=O)N2CCNCC2)cc(-c2nc(-c3ccc(C(F)F)cc3)c(C)s2)c1=O [Compound 517] | > 6.52 | > 6.52
37 | CCc1cccc(CC)c1-n1c(-c2cccn2C)c(C(=O)N2CCNCC2)cc(-c2nc(-c3ccc(Cl)cc3)cs2)c1=O [Compound 518] | > 6.52 | > 6.52
38 | CCc1cccc(CC)c1-n1c(C=C(C)C)c(C(=O)N2CCC3(CNC3)C2)cc(-c2nc(-c3ccc(Cl)cc3)cs2)c1=O [Compound 519] | 6.00 to 6.52 | > 6.52
39 | CCOc1ncc(F)cc1-n1c(C=C(C)C)c(C(=O)N2CCNCC2)cc(-c2nc(-c3ccc(C(F)F)nc3)cs2)c1=O [Compound 520] | > 6.52 | 5.30 to 6.00
40 | CC1(C)CC(=O)c2cc(-c3nc(-c4ccc(Cl)cc4)cs3)c(=O)n(-c3cc(Cl)ccc3Cl)c2C1 [Compound 522] | 5.30 to 6.00 | 6.00 to 6.52
41 | CCc1cccc(CC)c1-n1c(C=C(C)C)c(C(=O)N(C)C2CCNCC2)cc(-c2nc(-c3ccc(Cl)cc3)cs2)c1=O [Compound 523] | > 6.52 | > 6.52
42 | CCc1ncc(F)cc1-n1c(C=C(C)C)c(C(=O)N2CCNCC2)cc(-c2nc(-c3ccc(C(F)F)cc3)cs2)c1=O [Compound 524] | > 6.52 | > 6.52
43 | CCc1cccc(CC)c1-n1c2c(cc(-c3nc(-c4ccc(Cl)cc4)cs3)c1=O)C(=O)CCC2 [Compound 525] | 5.30 to 6.00 | 5.30 to 6.00
44 | CCc1cccc(CC)c1-n1c(C=C(C)C)c(C(=O)N2CCNC(=O)C2C)cc(-c2nc(-c3ccc(Cl)cc3)cs2)c1=O (stereo not shown) [Compound 526] | > 6.52 | > 6.52
45 | COc1ccc(CN2CCN(C)CC2)cc1-n1c2c(cc(-c3nc(-c4ccc(Cl)cc4)cs3)c1=O)C(=O)CCC2 [Compound 527] | < 4.70 | < 4.70
46 | CCOc1ccc(C)cc1-n1c(C=C(C)C)c(C(=O)N2CCNCC2)cc(-c2nc(-c3ccc(Cl)cc3)cs2)c1=O [Compound 528] | > 6.52 | > 6.52
47 | CCc1cccc(CC)c1-n1c(C=C(C)C)c(C(=O)N2CCCNC(=O)C2)cc(-c2nc(-c3ccc(Cl)cc3)cs2)c1=O [Compound 529] | > 6.52 | > 6.52
48 | CC(C)=Cc1c(C(=O)N2CCNCC2)cc(-c2nc(-c3ccc(Cl)cc3)cs2)c(=O)n1-c1cc(F)ccc1OC(C)C [Compound 530] | > 6.52 | 6.00 to 6.52
49 | CCc1cc(C)cc(CC)c1-n1c2c(cc(-c3nc(-c4ccc(Cl)cc4)cs3)c1=O)C(=O)CCC2 [Compound 531] | 4.70 to 5.30 | 5.30 to 6.00
50 | COc1ccc(F)cc1-n1c(C=C(C)C)c(C(=O)N2CCNCC2)cc(-c2ccn(-c3ccc(C(F)(F)F)cc3)n2)c1=O [Compound 532] | 6.00 to 6.52 | 5.30 to 6.00
51 | CCc1cccc(CC)c1-n1c(C=C(C)C)c(C(=O)N2CCNC[C@H]2C)cc(-c2nc(-c3ccc(C(F)(F)F)cc3)cs2)c1=O [Compound 533] | > 6.52 | > 6.52
52 | CCOc1ncc(F)cc1-n1c(C=C(C)C)c(C(=O)N2CCNCC2)cc(-c2nc(-c3ccc(C(F)(F)F)nc3)cs2)c1=O [Compound 534] | > 6.52 | > 6.52
53 | CCc1cccc(CC)c1-n1c(C)c(C(=O)N2CCNCC2)c(O)c(-c2nc(-c3ccc(Cl)cc3)cs2)c1=O [Compound 535] | 6.00 to 6.52 | 5.30 to 6.00

Source: patent publication US10703746B2, “Mutant IDH1 inhibitors useful for treating cancer” (THE UNITED STATES OF AMERICA, AS REPRESENTED BY THE …, priority 2014, dated 2020)
